By MIC is commonly meant the lowest concentration found to suppress growth. Broadly, the minimal effective concentration is the lowest level tested that produced the effect sought.

Converted amounts (≈) assume the structure as drawn. Some results are limits rather than exact numbers.

Common to all, as to type: cell-based
Assay [1] deals with Candida albicans 90028. The assay is described as follows: In vitro antifungal assay (Example IX), microdilution broth, MIC. The conditions noted are these: minimum inhibitory concentration (≥50% inhibition), 35° C., 40-48 h, RPMI1640. The procedure, abridged: (§1)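 Yeast inocula (2.5×10^3 cells/mL, RPMI1640) were exposed to twofold compound series reaching 2-0.0019 μg/mL final, per CLSI yeast methodology. Incubation at 35° C. ran 40-48 h for Candida albicans 90028 and 72 h for Cryptococcus neoformans H99. MIC endpoints were confirmed by absorbance at 600 nm.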

The test system of assay [2] is Cryptococcus neoformans H99. The description is as above. The conditions noted are these: minimum inhibitory concentration (≥50% inhibition), 35° C., 72 h, RPMI1640. The essentials: as §1
In assay [3] the test system is Cryptococcus gattii. The assay is described as above. The conditions noted are these: minimum inhibitory concentration (≥50% inhibition), 35° C., 72 h (Cryptococcus), RPMI1640. The procedure, abridged: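 MIC was determined from OD600 after 72 h at 35 °C for Cryptococcus, in RPMI1640 inoculated at 2.5×10^3 cells/mL. Compounds were tested as a 2-fold series from 2 to 0.0019 μg/mL final, added from DMSO intermediates at a 100-fold dilution.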

Assay [4] has as its system Aspergillus fumigatus MYA3626. The assay is described as follows: In vitro antifungal assay (Example IX), microdilution broth, MEC. The conditions noted are these: minimum effective concentration (shortening of hyphae), 35° C., 40-48 h, RPMI1640. The procedure, abridged: (§2)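 Read-out is the minimum effective concentration: lowest compound level causing shorter hyphae than in DMSO controls, echinocandin-style. Broth microdilution used conidia or spores harvested from agar plates, cleared of mycelium and clumps, at a final 1-2×10^4 spores/mL in RPMI1640.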

Assay [5] has as its system Rhizomucor pusillus 46342. The description is as above. The conditions noted are these: minimum effective concentration (shortening of hyphae), 35° C., 40-48 h, RPMI1640. The essentials:
as §2

Consider `Nc1ncccc1-c1cc(Cc2ccc(COc3cc(F)cc(F)c3F)cc2)no1` [compound 190, 3-(3-(4-((2,3,5-trifluorophenoxy)methyl)benzyl)isoxazol-5-yl)pyridin-2-amine], for which the minimum inhibitory concentration (MIC) in assay [1], in assay [2] and in assay [3] was 0.1 to 1 µg/mL (≈ 0.243 to 2.43 µM) in each case. For the same molecule, the minimal effective concentration was 0.1 to 1 µg/mL in assay [4] and more than 1 µg/mL in assay [5].

Turning to `Nc1ncccc1-c1cc(Cc2ccc(OCc3ccnc(Cl)c3)nc2)no1` [compound 83, 3-(3-((6-((2-chloropyridin-4-yl)methoxy)pyridin-3-yl)methyl)isoxazol-5-yl)pyridin-2-amine], the MIC in assay [1] was 0.01 to 0.1 µg/mL (≈ 0.0254 to 0.254 µM); in assay [2], not above 0.01 µg/mL; in assay [3], 0.01 to 0.1 µg/mL (≈ 0.0254 to 0.254 µM). Moreover, the minimal effective concentration in assay [4] is 0.01 to 0.1 µg/mL; in assay [5], more than 1 µg/mL.

On to `Nc1ncccc1-c1cc(Cc2ccc(OCc3ccoc3)nc2)no1` [compound 48, 3-(3-((6-(furan-3-ylmethoxy)pyridin-3-yl)methyl)isoxazol-5-yl)pyridin-2-amine], for which the minimal inhibitory concentration (MIC) in assay [1], in assay [2] and in assay [3] was 0.01 to 0.1 µg/mL (≈ 0.0287 to 0.287 µM) each time. Also, the values for the minimal effective concentration in assay [4] and in assay [5] were 0.01 to 0.1 µg/mL and 0.1 to 1 µg/mL, respectively.

`Nc1ccc(-c2cc(Cc3ccc(OCc4ccccc4)cc3)no2)c(N)n1` [compound 132, 3-(3-(4-(benzyloxy)benzyl)isoxazol-5-yl)pyridine-2,6-diamine]: the MIC in assay [1], in assay [2] and in assay [3] was 0.01 to 0.1 µg/mL (≈ 0.0269 to 0.269 µM) each time. The minimal effective concentration in assay [4] was not above 0.01 µg/mL; in assay [5], 0.1 to 1 µg/mL.

On to `Nc1ncccc1-c1cc(Cc2ccc(OCc3csc(Cl)n3)nc2)no1` [compound 220, 3-(3-((6-((2-chlorothiazol-4-yl)methoxy)pyridin-3-yl)methyl)isoxazol-5-yl)pyridin-2-amine], for which the MIC in assay [1], in assay [2] and in assay [3] was 0.1 to 1 µg/mL (≈ 0.25 to 2.5 µM) in each case. In addition, the minimal effective concentration in assay [4] and in assay [5] was 0.1 to 1 µg/mL throughout.

On to `Nc1ncccc1-c1cc(Cc2ccc(Cc3cccnc3F)cc2)no1` [compound 69, 3-(3-(4-((2-fluoropyridin-3-yl)methyl)benzyl)isoxazol-5-yl)pyridin-2-amine], for which the minimal inhibitory concentration (MIC) in assay [1], in assay [2] and in assay [3] was 0.01 to 0.1 µg/mL (≈ 0.0277 to 0.277 µM) in each case. For the same molecule, the minimal effective concentration in assay [4] lay within 0.01 to 0.1 µg/mL; in assay [5] it was 0.1 to 1 µg/mL.

`Nc1ncccc1-c1cc(Cc2ccc(OCc3cccc(Cl)n3)nc2)no1` [compound 222, 3-(3-((6-((6-chloropyridin-2-yl)methoxy)pyridin-3-yl)methyl)isoxazol-5-yl)pyridin-2-amine]: the minimum inhibitory concentration (MIC) in assay [1] lay in the range of 0.01 to 0.1 µg/mL (≈ 0.0254 to 0.254 µM); in assay [2], 0.01 to 0.1 µg/mL (≈ 0.0254 to 0.254 µM); in assay [3] it was 0.1 to 1 µg/mL (≈ 0.254 to 2.54 µM). Also, the minimal effective concentration in assay [4] was 0.01 to 0.1 µg/mL; in assay [5], more than 1 µg/mL.

In the case of `Nc1ccc(-c2cc(Cc3ccc(Oc4cccc(F)n4)cc3)no2)c(N)n1` [compound 134, 3-(3-(4-((6-fluoropyridin-2-yl)oxy)benzyl)isoxazol-5-yl)pyridine-2,6-diamine], the MIC in assay [1] was in the range of 0.1 to 1 µg/mL (≈ 0.265 to 2.65 µM); in assay [2], 0.01 to 0.1 µg/mL (≈ 0.0265 to 0.265 µM); in assay [3] it was 0.01 to 0.1 µg/mL (≈ 0.0265 to 0.265 µM). For the same molecule, the minimal effective concentration in assay [4] and in assay [5] was 0.1 to 1 µg/mL each time.

With `Nc1ncccc1-c1cc(Cc2ccc(OCc3ccc4ccccc4n3)cc2)no1` [compound 27, 3-(3-(4-(quinolin-2-ylmethoxy)benzyl)isoxazol-5-yl)pyridin-2-amine], the minimal inhibitory concentration (MIC) in assay [1], in assay [2] and in assay [3] was 0.1 to 1 µg/mL (≈ 0.245 to 2.45 µM) each time. Besides, the minimal effective concentration in assay [4] and in assay [5] was more than 1 µg/mL in each case.

For the molecule `Nc1ncccc1-c1cc(Cc2ccc(Nc3cc(F)ccc3F)nc2)no1` [compound 244, 5-((5-(2-aminopyridin-3-yl)isoxazol-3-yl)methyl)-N-(2,5-difluorophenyl)pyridin-2-amine], the minimum inhibitory concentration (MIC) in assay [1], in assay [2] and in assay [3] was 0.1 to 1 µg/mL (≈ 0.264 to 2.64 µM) in each case. The minimal effective concentration in assay [4] is 0.1 to 1 µg/mL; in assay [5], more than 1 µg/mL.

For the molecule `Nc1ncccc1-c1cc(Cc2ccc(Cn3cncn3)cc2)no1` [compound 199, 3-(3-(4-((1H-1,2,4-triazol-1-yl)methyl)benzyl)isoxazol-5-yl)pyridin-2-amine], the minimal inhibitory concentration (MIC) in assay [1], in assay [2] and in assay [3] was more than 1 µg/mL in each case. In addition, the minimal effective concentration in assay [4] and in assay [5] was more than 1 µg/mL throughout.

For the molecule `Nc1ncccc1-c1cc(Cc2cnc(SCc3ccccc3)nc2)no1` [compound 125, 3-(3-((2-(benzylthio)pyrimidin-5-yl)methyl)isoxazol-5-yl)pyridin-2-amine], the MIC in assay [1] is 0.1 to 1 µg/mL (≈ 0.266 to 2.66 µM); in assay [2], more than 1 µg/mL; in assay [3] it was more than 1 µg/mL. Also, the minimal effective concentration was 0.1 to 1 µg/mL in assay [4] and more than 1 µg/mL in assay [5].

In the case of `Cc1ccc(Cc2ccc(Cc3cc(-c4cccnc4N)on3)cc2)o1` [compound 122, 3-(3-(4-((5-methylfuran-2-yl)methyl)benzyl)isoxazol-5-yl)pyridin-2-amine], the minimum inhibitory concentration (MIC) in assay [1] is not above 0.01 µg/mL; in assay [2], 0.01 to 0.1 µg/mL (≈ 0.029 to 0.29 µM); in assay [3], 0.01 to 0.1 µg/mL (≈ 0.029 to 0.29 µM). Moreover, the results for the minimal effective concentration in assay [4] and in assay [5] were not above 0.01 µg/mL and 0.01 to 0.1 µg/mL, respectively.

Take `CCn1cc(Cc2ccc(Cc3cc(-c4cccnc4N)on3)cc2)cn1` [compound 12, 3-(3-(4-((1-ethyl-1H-pyrazol-4-yl)methyl)benzyl)isoxazol-5-yl)pyridin-2-amine]: the minimum inhibitory concentration (MIC) in assay [1], in assay [2] and in assay [3] was 0.1 to 1 µg/mL (≈ 0.278 to 2.78 µM) each time. Besides, the minimal effective concentration in assay [4] is 0.01 to 0.1 µg/mL; in assay [5] it was more than 1 µg/mL.

With `c1ccc(OCc2ccc(Cn3cc(-c4cccnc4)cn3)cc2)nc1` [compound 62, 2-((4-((4-(pyridin-3-yl)-1H-pyrazol-1-yl)methyl)benzyl)oxy)pyridine], the MIC is 0.1 to 1 µg/mL (≈ 0.292 to 2.92 µM) in assay [1], more than 1 µg/mL in assay [2] and more than 1 µg/mL in assay [3]. Further, the minimal effective concentration is 0.01 to 0.1 µg/mL in assay [4] and more than 1 µg/mL in assay [5].

`c1ccc(COc2ccc(Cn3cc(-c4cccnc4)cn3)cn2)cc1` [compound 65, 2-(benzyloxy)-5-((4-(pyridin-3-yl)-1H-pyrazol-1-yl)methyl)pyridine]: the MIC in assay [1], in assay [2] and in assay [3] was 0.1 to 1 µg/mL (≈ 0.292 to 2.92 µM) in each case. In addition, the minimal effective concentration in assay [4] was 0.01 to 0.1 µg/mL; in assay [5] it was more than 1 µg/mL.

As to `Nc1ncccc1-c1cc(Cc2ccc(Oc3ccc(F)cc3)nc2)no1` [Example 160, 3-(3-((6-(4-fluorophenoxy)pyridin-3-yl)methyl)isoxazol-5-yl)pyridin-2-amine], the MIC in assay [1], in assay [2] and in assay [3] was 0.1 to 1 µg/mL (≈ 0.276 to 2.76 µM) throughout. Moreover, the minimal effective concentration was 0.01 to 0.1 µg/mL in assay [4] and 0.1 to 1 µg/mL in assay [5].

Consider `Nc1ncccc1-c1cc(Cc2ccc(Cc3ccnc(F)c3)cc2)no1` [compound 19, 3-(3-(4-((2-fluoropyridin-4-yl)methyl)benzyl)isoxazol-5-yl)pyridin-2-amine], for which the MIC in assay [1], in assay [2] and in assay [3] was 0.01 to 0.1 µg/mL (≈ 0.0277 to 0.277 µM) in each case. The minimal effective concentration in assay [4] lay in the range of 0.01 to 0.1 µg/mL; in assay [5], 0.1 to 1 µg/mL.

Consider `Nc1ncccc1-c1cc(Cc2ccc(CNc3cccc(F)c3)cc2)no1` [compound 107, 3-(3-(4-(((3-fluorophenyl)amino)methyl)benzyl)isoxazol-5-yl)pyridin-2-amine], for which the minimum inhibitory concentration (MIC) in assay [1], in assay [2] and in assay [3] was 0.01 to 0.1 µg/mL (≈ 0.0267 to 0.267 µM) each time. For the same molecule, the minimal effective concentration in assay [4] and in assay [5] was 0.01 to 0.1 µg/mL each time.

Consider `Nc1ncccc1-c1cc(Cc2ccc(OCc3ccnc(Br)c3)nc2)no1` [compound 195, 3-(3-((6-((2-bromopyridin-4-yl)methoxy)pyridin-3-yl)methyl)isoxazol-5-yl)pyridin-2-amine], for which the MIC fell in the range of 0.1 to 1 µg/mL (≈ 0.228 to 2.28 µM) in assay [1], 0.01 to 0.1 µg/mL (≈ 0.0228 to 0.228 µM) in assay [2] and 0.01 to 0.1 µg/mL (≈ 0.0228 to 0.228 µM) in assay [3]. In addition, the results for the minimal effective concentration in assay [4] and in assay [5] were 0.1 to 1 µg/mL and more than 1 µg/mL, respectively.

As for `Nc1ncccc1-c1cc(Cc2ccc(CC3=CCOC3)cc2)no1` [compound 123, 3-(3-(4-((2,5-dihydrofuran-3-yl)methyl)benzyl)isoxazol-5-yl)pyridin-2-amine], the minimum inhibitory concentration (MIC) fell in the range of 0.01 to 0.1 µg/mL (≈ 0.03 to 0.3 µM) in assay [1], 0.1 to 1 µg/mL (≈ 0.3 to 3 µM) in assay [2] and 0.01 to 0.1 µg/mL (≈ 0.03 to 0.3 µM) in assay [3]. The minimal effective concentration in assay [4] is 0.01 to 0.1 µg/mL; in assay [5], more than 1 µg/mL.

With `Nc1ncccc1-c1cc(Cc2ccc(CNc3ncccn3)cc2)no1` [compound 32, N-(4-((5-(2-aminopyridin-3-yl)isoxazol-3-yl)methyl)benzyl)pyrimidin-2-amine], the minimal inhibitory concentration (MIC) in assay [1] was 0.01 to 0.1 µg/mL (≈ 0.0279 to 0.279 µM); in assay [2], 0.1 to 1 µg/mL (≈ 0.279 to 2.79 µM); in assay [3] it was 0.1 to 1 µg/mL (≈ 0.279 to 2.79 µM). The minimal effective concentration lay in the range of 0.01 to 0.1 µg/mL in assay [4] and 0.1 to 1 µg/mL in assay [5].
